Laboratory results: patent US20250388529A1, “N-Substituted Phenylalkylamines and Their Use as Therapeutic Agents” (priority 2023, published 2025)

Tests used:
[1] = cited from earlier work
5-HT2A [2] = molecular target: T1, 5-HT2A (Homo sapiens, UniProt P28223); settings: [125I]-DOI competition binding; cited from earlier work
5-HT2A receptors = molecular target: T2, 5-HT2A receptors (Rattus norvegicus, UniProt P14842); settings: Xenopus oocytes; cited from earlier work
T2 construct: host or cells: Xenopus oocytes (transient)

5-HT2B = 5-HT2B (Homo sapiens, UniProt P41595); settings: Ca2+ mobilization; cited from earlier work
5-HT2A [3] = molecular target: T1, 5-HT2A; settings: cited from earlier work
rat 5-HT2A receptors = rat 5-HT2A receptors (Rattus norvegicus, UniProt P14842); settings: [125I]-DOI competition binding; cited from earlier work
5-HT2A [4] = molecular target: T1, 5-HT2A; settings: Ca2+ mobilization; cited from earlier work
human Nav1.1 and Navβ1 = human Nav1.1 and Navβ1 (Homo sapiens, UniProt P35498); experiment: cell-based

T1 sequence (P28223 whole entry): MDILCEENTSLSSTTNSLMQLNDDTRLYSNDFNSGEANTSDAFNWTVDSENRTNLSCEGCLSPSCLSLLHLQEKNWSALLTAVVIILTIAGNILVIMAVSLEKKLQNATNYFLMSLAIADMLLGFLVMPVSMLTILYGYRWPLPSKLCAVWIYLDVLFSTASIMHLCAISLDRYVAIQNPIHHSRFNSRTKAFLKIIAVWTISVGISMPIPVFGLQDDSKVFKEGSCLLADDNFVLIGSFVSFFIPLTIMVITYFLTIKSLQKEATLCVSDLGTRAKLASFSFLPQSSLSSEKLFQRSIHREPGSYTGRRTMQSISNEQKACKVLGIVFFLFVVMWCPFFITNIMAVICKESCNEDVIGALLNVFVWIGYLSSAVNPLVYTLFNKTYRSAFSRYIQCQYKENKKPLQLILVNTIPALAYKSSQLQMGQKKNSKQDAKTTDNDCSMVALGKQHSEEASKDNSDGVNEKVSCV
Sequence of 5-HT2B (P41595 whole entry): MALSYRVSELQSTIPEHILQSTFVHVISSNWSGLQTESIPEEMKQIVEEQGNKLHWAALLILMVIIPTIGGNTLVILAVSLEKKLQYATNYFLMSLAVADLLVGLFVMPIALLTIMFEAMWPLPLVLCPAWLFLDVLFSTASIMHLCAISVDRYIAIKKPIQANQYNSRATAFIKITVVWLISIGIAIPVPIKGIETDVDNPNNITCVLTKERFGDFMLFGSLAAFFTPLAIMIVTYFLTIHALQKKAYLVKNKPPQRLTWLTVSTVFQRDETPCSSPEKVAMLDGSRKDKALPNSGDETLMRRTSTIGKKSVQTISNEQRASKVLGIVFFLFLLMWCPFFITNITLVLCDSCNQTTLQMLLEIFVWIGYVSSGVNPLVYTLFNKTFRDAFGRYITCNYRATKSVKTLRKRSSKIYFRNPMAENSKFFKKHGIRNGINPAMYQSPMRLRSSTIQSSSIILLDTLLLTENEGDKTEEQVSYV
Sequence of rat 5-HT2A receptors (P14842 whole entry): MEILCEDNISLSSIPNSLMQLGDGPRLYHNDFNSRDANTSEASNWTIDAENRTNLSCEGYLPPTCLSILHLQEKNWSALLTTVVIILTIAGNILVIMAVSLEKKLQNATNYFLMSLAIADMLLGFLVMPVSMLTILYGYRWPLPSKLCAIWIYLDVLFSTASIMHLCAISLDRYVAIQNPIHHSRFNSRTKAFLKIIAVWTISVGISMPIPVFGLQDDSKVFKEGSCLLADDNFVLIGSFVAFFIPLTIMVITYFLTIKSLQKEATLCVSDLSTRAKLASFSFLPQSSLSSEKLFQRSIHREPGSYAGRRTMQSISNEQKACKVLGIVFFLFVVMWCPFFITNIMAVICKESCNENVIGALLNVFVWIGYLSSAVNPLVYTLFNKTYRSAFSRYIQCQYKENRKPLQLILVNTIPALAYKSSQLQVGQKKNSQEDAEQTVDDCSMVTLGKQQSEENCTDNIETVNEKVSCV
T2 sequence (P14842 whole entry): as above

SMILES | oral activity (dose) [1] | Ki (5-HT2A [2]) | functional activity in 5-HT2A-mediated inward current recordings (5-HT2A receptors) | EC50 (5-HT2B) | functional activity at the 5-HT2A receptor (5-HT2A [3]) | Ki (rat 5-HT2A receptors) | EC50 (5-HT2A [4]) | Normalized Peak INa Inhibition (human Nav1.1 and Navβ1) | Peak INa Density (human Nav1.1 and Navβ1) | Peak INa Density @ −20 mV (human Nav1.1 and Navβ1) | reduction of baseline peak INa (human Nav1.1 and Navβ1)
COc1cc(CCN)c(OC)cc1Br [2C-B] | 12 to 24 mg | 0.88 nM | antagonist | 57 nM | partial agonist | 0.66 nM | 2.1 nM |  |  |  | 
NC1=N[C@H](O)[C@H]2[C@H]3O[C@]4(O)O[C@@H]([C@@H](O)[C@@]2(N1)[C@@H]4O)[C@]3(O)CO [TTX, Tetrodotoxin, reference compound] |  |  |  |  |  |  |  | 0.870 ± 0.02 | −56.3 ± 9.4 pA/pF | −15.84±2.16 pA/pF | 87±2%
